The NIST ThermoML archive (doi:10.1016/j.jct.2019.03.023)
Several values for one entry are separate records, joined by “and”; a condition that tells them apart may be missing. Equal entries are not always repeated.

Assay: molar heat capacity at constant volume
Settings: Vacuum adiabatic calorimetry

CC(C)O [propan-2-ol]
Fluid (supercritical or subcritical phases)
Settings	molar heat capacity at constant volume
380.8 K, Mass density=697.69 kg/m3	187.08 J/K/mol
380.91 K, Mass density=697.69 kg/m3	187.8 J/K/mol
381.02 K, Mass density=697.69 kg/m3	186.29 J/K/mol
381.13 K, Mass density=697.69 kg/m3	184.61 J/K/mol
381.24 K, Mass density=697.69 kg/m3	185.39 J/K/mol
381.35 K, Mass density=697.69 kg/m3	184.49 J/K/mol
381.46 K, Mass density=697.69 kg/m3	184.01 J/K/mol
381.57 K, Mass density=697.69 kg/m3	184.67 J/K/mol
381.69 K, Mass density=697.69 kg/m3	184.97 J/K/mol
391.32 K, Mass density=329.2 kg/m3	243.38 J/K/mol
391.53 K, Mass density=329.2 kg/m3	248.85 J/K/mol
391.54 K, Mass density=329.2 kg/m3	243.44 J/K/mol
391.65 K, Mass density=329.2 kg/m3	246.93 J/K/mol
391.76 K, Mass density=329.2 kg/m3	235.69 J/K/mol
391.87 K, Mass density=329.2 kg/m3	241.16 J/K/mol
391.98 K, Mass density=329.2 kg/m3	242.54 J/K/mol
392.09 K, Mass density=329.2 kg/m3	244.11 J/K/mol
392.2 K, Mass density=329.2 kg/m3	243.2 J/K/mol
399.51 K, Mass density=343.1 kg/m3	235.93 J/K/mol
399.72 K, Mass density=343.1 kg/m3	235.93 J/K/mol
399.83 K, Mass density=343.1 kg/m3	239.24 J/K/mol
399.94 K, Mass density=343.1 kg/m3	242.54 J/K/mol
400.04 K, Mass density=343.1 kg/m3	236.05 J/K/mol
400.15 K, Mass density=343.1 kg/m3	239.36 J/K/mol
400.25 K, Mass density=343.1 kg/m3	239.42 J/K/mol
400.36 K, Mass density=343.1 kg/m3	239.42 J/K/mol
400.46 K, Mass density=343.1 kg/m3	236.23 J/K/mol
400.57 K, Mass density=343.1 kg/m3	239.54 J/K/mol
416.55 K, Mass density=329.2 kg/m3	258.83 J/K/mol
416.65 K, Mass density=329.2 kg/m3	260.09 J/K/mol
416.76 K, Mass density=329.2 kg/m3	252.52 J/K/mol
416.86 K, Mass density=329.2 kg/m3	257.99 J/K/mol
416.97 K, Mass density=329.2 kg/m3	255.76 J/K/mol
417.08 K, Mass density=329.2 kg/m3	261.47 J/K/mol
417.18 K, Mass density=329.2 kg/m3	252.94 J/K/mol
417.29 K, Mass density=329.2 kg/m3	253.84 J/K/mol
417.39 K, Mass density=329.2 kg/m3	259.73 J/K/mol
417.5 K, Mass density=329.2 kg/m3	261.17 J/K/mol
442.12 K, Mass density=329.2 kg/m3	262.92 J/K/mol
442.23 K, Mass density=329.2 kg/m3	265.86 J/K/mol
442.33 K, Mass density=329.2 kg/m3	272.53 J/K/mol
442.43 K, Mass density=329.2 kg/m3	265.68 J/K/mol
442.54 K, Mass density=329.2 kg/m3	266.76 J/K/mol
442.64 K, Mass density=329.2 kg/m3	267.6 J/K/mol
442.74 K, Mass density=329.2 kg/m3	270.13 J/K/mol
442.85 K, Mass density=329.2 kg/m3	265.86 J/K/mol
447.55 K, Mass density=581.06 kg/m3	250.9 J/K/mol
447.75 K, Mass density=581.06 kg/m3	250.96 J/K/mol
447.85 K, Mass density=581.06 kg/m3	250.96 J/K/mol
447.95 K, Mass density=581.06 kg/m3	253.06 J/K/mol
448.05 K, Mass density=581.06 kg/m3	255.1 J/K/mol
448.15 K, Mass density=581.06 kg/m3	251.08 J/K/mol
448.25 K, Mass density=581.06 kg/m3	251.08 J/K/mol
448.35 K, Mass density=581.06 kg/m3	253.18 J/K/mol
448.54 K, Mass density=581.06 kg/m3	253.06 J/K/mol
448.64 K, Mass density=581.06 kg/m3	255.16 J/K/mol
448.74 K, Mass density=581.06 kg/m3	253.12 J/K/mol
448.84 K, Mass density=581.06 kg/m3	251.14 J/K/mol
448.94 K, Mass density=581.06 kg/m3	253.18 J/K/mol
449.04 K, Mass density=581.06 kg/m3	253.24 J/K/mol
449.14 K, Mass density=581.06 kg/m3	255.28 J/K/mol
449.24 K, Mass density=581.06 kg/m3	253.3 J/K/mol
449.34 K, Mass density=581.06 kg/m3	253.3 J/K/mol
449.44 K, Mass density=581.06 kg/m3	253.3 J/K/mol
449.63 K, Mass density=581.06 kg/m3	251.56 J/K/mol
449.73 K, Mass density=581.06 kg/m3	253.6 J/K/mol
449.83 K, Mass density=581.06 kg/m3	255.7 J/K/mol
449.93 K, Mass density=581.06 kg/m3	255.7 J/K/mol
450.03 K, Mass density=581.06 kg/m3	251.62 J/K/mol
450.13 K, Mass density=581.06 kg/m3	249.63 J/K/mol
450.23 K, Mass density=581.06 kg/m3	255.82 J/K/mol
450.33 K, Mass density=581.06 kg/m3	253.78 J/K/mol
450.43 K, Mass density=581.06 kg/m3	253.78 J/K/mol
450.52 K, Mass density=581.06 kg/m3	253.84 J/K/mol
450.62 K, Mass density=581.06 kg/m3	253.54 J/K/mol
450.72 K, Mass density=581.06 kg/m3	251.86 J/K/mol
450.92 K, Mass density=581.06 kg/m3	253.72 J/K/mol
451.06 K, Mass density=581.06 kg/m3	251.62 J/K/mol
451.16 K, Mass density=581.06 kg/m3	252.94 J/K/mol
451.26 K, Mass density=581.06 kg/m3	249.63 J/K/mol
451.36 K, Mass density=581.06 kg/m3	249.63 J/K/mol
451.46 K, Mass density=581.06 kg/m3	249.69 J/K/mol
451.56 K, Mass density=581.06 kg/m3	249.69 J/K/mol
451.66 K, Mass density=581.06 kg/m3	251.8 J/K/mol
451.75 K, Mass density=581.06 kg/m3	250.3 J/K/mol
451.81 K, Mass density=581.06 kg/m3	247.95 J/K/mol
451.83 K, Mass density=581.06 kg/m3	250 J/K/mol and 186.78 J/K/mol
451.86 K, Mass density=581.06 kg/m3	181.85 J/K/mol
451.91 K, Mass density=581.06 kg/m3	175.18 J/K/mol
451.95 K, Mass density=581.06 kg/m3	179.26 J/K/mol
452.01 K, Mass density=581.06 kg/m3	174.52 J/K/mol

Settings	molar heat capacity at constant volume [J/K/mol]
451.83 K, Liquid	186.78
